US20240327429A1, “[1,3]Thiazolo[4,5-d]-pyrimidon-7-ones as inhibitors of NOX4” (Boehringer Ingelheim International GmbH, priority 2023, published 2024)

Columns and labels:
human NOX1 (hNOX1) = biological target: T1, human NOX1 (hNOX1) (Homo sapiens, UniProt Q9Y5S8); assay: NOX1 inhibition assay (L-012), HEK293 cells stably overexpressing human NOX1; assay type: cell-based; conditions: HEK293-hNOX1, PMA stimulated
T1 construct: pLV-CMV-hNOX1-puro (NM_007052.5); host or cells: HEK293 (CLS GmbH), lentiviral transduction
T1 sequence (Q9Y5S8 1-564): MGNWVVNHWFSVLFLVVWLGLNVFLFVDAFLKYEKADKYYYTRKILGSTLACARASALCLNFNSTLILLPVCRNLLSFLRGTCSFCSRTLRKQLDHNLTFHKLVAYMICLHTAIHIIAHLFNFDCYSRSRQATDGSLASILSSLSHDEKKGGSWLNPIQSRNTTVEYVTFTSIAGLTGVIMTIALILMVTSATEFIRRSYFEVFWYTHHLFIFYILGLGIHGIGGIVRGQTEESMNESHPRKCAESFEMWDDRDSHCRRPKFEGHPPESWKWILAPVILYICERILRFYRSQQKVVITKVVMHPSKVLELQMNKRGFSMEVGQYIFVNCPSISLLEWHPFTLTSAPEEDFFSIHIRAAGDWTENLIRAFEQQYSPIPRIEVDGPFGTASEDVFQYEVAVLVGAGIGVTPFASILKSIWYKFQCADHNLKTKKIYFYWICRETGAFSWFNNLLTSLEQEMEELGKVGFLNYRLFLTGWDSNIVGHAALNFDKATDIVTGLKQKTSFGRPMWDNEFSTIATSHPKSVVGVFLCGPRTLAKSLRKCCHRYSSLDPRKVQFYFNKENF
T1 sequence (P13498 2-195 partner limits assumed): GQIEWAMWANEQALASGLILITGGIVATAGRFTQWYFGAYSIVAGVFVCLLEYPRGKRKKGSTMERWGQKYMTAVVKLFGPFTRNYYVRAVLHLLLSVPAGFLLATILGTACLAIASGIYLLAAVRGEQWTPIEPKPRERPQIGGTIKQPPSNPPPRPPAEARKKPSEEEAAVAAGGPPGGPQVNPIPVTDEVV
In short: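 Lentivirally transduced HEK293 stably expressing human NOX1 with NOXO1, NOXA1 and p22phox under antibiotic selection. ROS production read by L-012 chemiluminescence: probe added at 400 μM, cells incubated a further 3 h before luminescence measurement.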

human NOX3 (hNOX3) = biological target: T2, human NOX3 (hNOX3) (Homo sapiens, UniProt Q9HBY0); assay: NOX3 inhibition assay (L-012), HEK293 cells stably overexpressing human NOX3; assay type: cell-based; conditions: HEK293-hNOX3, PMA stimulated
T2 construct: pLV-CMV-hNOX3-puro (NM_015718.3); host or cells: HEK293 (CLS GmbH), lentiviral transduction
T2 sequence (Q9HBY0 1-568): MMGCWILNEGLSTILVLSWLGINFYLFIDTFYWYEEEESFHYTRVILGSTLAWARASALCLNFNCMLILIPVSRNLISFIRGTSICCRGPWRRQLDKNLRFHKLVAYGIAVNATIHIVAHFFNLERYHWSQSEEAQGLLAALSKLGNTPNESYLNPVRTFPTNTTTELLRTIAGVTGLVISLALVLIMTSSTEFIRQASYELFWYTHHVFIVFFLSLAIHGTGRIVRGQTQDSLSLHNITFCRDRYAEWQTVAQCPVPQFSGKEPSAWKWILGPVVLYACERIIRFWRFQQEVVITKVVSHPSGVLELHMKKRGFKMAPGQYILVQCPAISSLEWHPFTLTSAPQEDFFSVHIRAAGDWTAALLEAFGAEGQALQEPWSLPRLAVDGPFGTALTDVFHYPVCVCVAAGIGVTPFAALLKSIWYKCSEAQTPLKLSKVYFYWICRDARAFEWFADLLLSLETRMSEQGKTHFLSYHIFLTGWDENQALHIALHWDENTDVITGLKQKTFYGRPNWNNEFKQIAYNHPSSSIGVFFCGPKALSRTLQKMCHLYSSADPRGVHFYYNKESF
T2 sequence (P13498 2-195 partner limits assumed): T1 sequence (P13498 2-195 partner limits assumed)
Text: Plasmids are Purchased from Vectorbuilder. • for HEK-hNOX1 all necessary subunits are cloned accordingly: • pLV-CMV-hNOX1-puro (NM_007052.5) • pLV-CMV-hNOXO1-blas (NM_172168.3) • pLV-CMV-hp22phox-hygro (NM_000101.4) • pLV-CMV-hNOXA1-neo (NM_006647.2) • for HEK-hNOX3 • pLV-CMV-hNOX3-puro (NM_015718.3)
3rd generation lentiviral particles are produced in HEK293 suspension cells by transient transfection of three helper and expression plasmids. Crucial lentivirus supernatants are harvested, clarified by filtration and concentrated by precipitation. Lentivirus titers are determined in transducing units in (TU/mL) by transduction of HT1080 cells and colony forming assay. Parental HEK293 cells, purchased from CLS GmbH, are transduced with replication-incompetent 3rd generation lentiviral particles (MOI 2) and expanded for at least 2 weeks before cryopreservation of tested lots. During cultivation, medium is changed three times per week and cells are sub-cultured at least once per week. Selection antibiotics are added according to the plasmids (1 μg/ml puromycin, 1.5 μg/ml blasticidin, 200 μg/ml G418 and 100 μg/ml hygromycin).
Evaluation of the NOX4 inhibitors on NOX3 activity is assessed in HEK293 cells stably overexpressing human NOX3 (hNOX3).
Cells are seeded in 384 well plates for 2 days. […] Cells are then stimulated with PMA at 0.1 μM to induce NOX3-dependent ROS production. […] Luminescence is measured with an PHERAstar multimode reader.

human NOX4 (hNOX4) = biological target: T3, human NOX4 (hNOX4) (Homo sapiens, UniProt Q9NPH5); assay: cell-based
T3 sequence (Q9NPH5 1-578): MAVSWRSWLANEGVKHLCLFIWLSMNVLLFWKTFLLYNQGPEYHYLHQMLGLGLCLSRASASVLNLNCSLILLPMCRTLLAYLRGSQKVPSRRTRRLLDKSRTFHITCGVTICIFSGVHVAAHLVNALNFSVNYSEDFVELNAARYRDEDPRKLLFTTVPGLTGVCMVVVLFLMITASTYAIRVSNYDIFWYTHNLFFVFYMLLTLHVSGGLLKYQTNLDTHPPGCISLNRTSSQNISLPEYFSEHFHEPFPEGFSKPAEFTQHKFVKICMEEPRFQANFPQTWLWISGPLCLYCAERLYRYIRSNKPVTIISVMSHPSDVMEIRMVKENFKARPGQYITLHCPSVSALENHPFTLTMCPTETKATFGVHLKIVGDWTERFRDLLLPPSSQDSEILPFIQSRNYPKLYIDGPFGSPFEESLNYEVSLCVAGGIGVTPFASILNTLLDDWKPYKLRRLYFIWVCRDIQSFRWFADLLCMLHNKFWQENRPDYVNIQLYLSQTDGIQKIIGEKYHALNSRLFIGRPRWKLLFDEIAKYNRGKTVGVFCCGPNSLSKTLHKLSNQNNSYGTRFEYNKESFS
T3 sequence (P13498 2-195 partner limits assumed): T1 sequence (P13498 2-195 partner limits assumed)
Experimental: The synthetic gene phNOX4_DNA3_1_Zeo (Accession: AAF68973) is assembled from synthetic oligonucleotides and/or PCR products. The fragment is cloned into pcDNA3.1_Zeo_A011 using NheI and XhoI cloning sites. The plasmid DNA is purified from transformed bacteria and its concentration is determined by UV spectroscopy. The final construct is verified by sequencing. The plasmid is transfected via electroporation (Amaxa electroporation device) in combination with Nucleofector Kit V. Selection of NOX4 overexpressing genes is achieved using selection antibiotic Zeocin.
The inhibitory activity of the example compounds of the invention is determined using the following procedure:
Cells are cultured in the Dulbecco's Modified Eagle Medium (DMEM) media containing 4.5 g/L glucose supplemented with 10% fetal calf serum and 250 μg/ml Zeocin in an incubator at 37° C. with 5% CO2. For the assay, cells are seeded in 384 well plates.
After incubation Lumigen HyPerBlu™ is added and cells are incubated for additional 30 min at 24° C. in a humidified incubator. Next, luminescence is measured using an Envision Multimode Plate reader to determine levels of produced H2O2 in the wells.

| Compound | IC50 (human NOX1 (hNOX1)) [µM] | IC50 (human NOX3 (hNOX3)) [µM] | IC50 (human NOX4 (hNOX4)) [µM] |
| --- | --- | --- | --- |
| O=c1c2scnc2nc(SCc2c(F)cc(F)cc2F)n1-c1cnc(O)c(F)c1F [Example 52, 6-(4,5-Difluoro-6-hydroxypyridin-3-yl)-5-((2,4,6-trifluorobenzyl)thio)thiazolo[4,5-d]-pyrimidin-7(6H)-one] | 21.2 | 15.5 | 0.052 |
| O=c1c2scnc2nc(SCc2c(F)cc(F)cc2F)n1-c1cc(F)c(O)c(F)c1 [Example 8] | 1.1 | 2.7 | 0.043 |
| O=c1c2scnc2nc(SCc2c(F)cc(F)cc2F)n1-c1ccc(O)cc1Cl [Example 17] | 14.4 | 61.4 | 0.314 |
| Cc1cc(Cl)ccc1CSc1nc2ncsc2c(=O)n1-c1cnc(O)c(F)c1 [Example 37] | 18.8 | 70.4 | 0.034 |
| N#Cc1cc(-n2c(SCc3c(F)cc(F)cc3F)nc3ncsc3c2=O)ccc1O [Example 18] | 0.06 | 0.4 | 0.117 |
| O=c1c2scnc2nc(SCc2c(F)cc(F)cc2F)n1-c1cnc(O)cn1 [Example 69, 6-(5-Hydroxypyrazin-2-yl)-5-((2,4,6-trifluorobenzyl)thio)thiazolo[4,5-d]pyrimidin-7(6H)-one] | > 100 | 77.5 | 0.065 |
| O=c1c2scnc2nc(SCc2c(F)cc(F)cc2F)n1-c1ccc(O)nc1F [Example 50, 6-(2-Fluoro-6-hydroxypyridin-3-yl)-5-((2,4,6-trifluorobenzyl)thio)thiazolo[4,5-d]-pyrimidin-7(6H)-one] | 27.6 | 64.7 | 0.047 |
| O=c1c2scnc2nc(SCc2c(F)cc(F)cc2F)n1-c1ccc(O)nc1 [Example 28] | 27.1 | > 100 | 0.136 |
| O=c1c2scnc2nc(SCc2c(F)cc(F)cc2F)n1-c1cnc(O)c(Cl)c1 [Example 48, 6-(5-Chloro-6-hydroxypyridin-3-yl)-5-((2,4,6-trifluorobenzyl)thio)thiazolo[4,5-d]pyri-midin-7(6H)-one] | 36.7 | > 100 | 0.201 |
| Cc1cc(F)ccc1CSc1nc2ncsc2c(=O)n1-c1cnc(O)c(F)c1 [Example 36] | > 100 | 87.9 | 0.034 |
| O=c1c2scnc2nc(SCc2c(F)ccc(F)c2F)n1-c1cnc(O)c(F)c1 [Example 45] | 30.9 | 71.5 | 0.113 |
